Measured values published in patent US5481013A, “Carboxylic acid derivatives” (Ciba-Geigy Corporation, priority 1992, dated 1996).

Key:
Assay type in all cases: in vivo
Tetranychus urticae = test: Activity against Tetranychus urticae; conditions: 144 h, 400 ppm spray on young bean plants, mixed population, 6 days at 25° C, read-out: percentage reduction in population (% activity)
Description: Young bean plants are populated with a mixed population of Tetranychus urticae and, after 1 day, sprayed with a spray mixture prepared with an aqueous emulsion and comprising 400 ppm of the active ingredient. The plants are subsequently incubated for 6 days at 25° C and then evaluated. The percentage reduction in population (% activity) is determined by comparing the number of dead eggs, larvae and adults on the treated plants with those on the untreated ones.

Nilaparvata lugens [1] = test: Systemic activity against Nilaparvata lugens; conditions: 144 h, pots with rice plants in 400 ppm aqueous emulsion solution, larvae in stages 2 and 3, evaluated 6 days later, read-out: percentage reduction in population (% activity)
Description: Pots containing rice plants are placed into an aqueous emulsion solution comprising 400 ppm of the active ingredient. The rice plants are subsequently populated with larvae in stages 2 and 3. The test is evaluated 6 days later. The percentage reduction in population (% activity) is determined by comparing the numbers of plant hoppers on the treated plants with those on the untreated plants.

Nilaparvata lugens [2] = test: Activity against Nilaparvata lugens (spray on rice plants); conditions: 504 h, 400 ppm spray on rice plants, larvae in stages 2 and 3, evaluated after 21 days, read-out: percentage reduction in population (% activity)
Description: Rice plants are treated with a spray mixture prepared with an aqueous emulsion and comprising 400 ppm of the active ingredient. After the spray coating has dried on, the rice plants are populated with plant hopper larvae in stages 2 and 3. The test is evaluated after 21 days. The percentage reduction in population (% activity) is determined by comparing the number of surviving plant hoppers on the treated plants with the number of plant hoppers on the untreated plants. […] An activity of over 80% is shown, in particular, by compound Nos. 1.01, 2.01 to 2.03, 2.07, 2.08, 2.10 to 2.16, 2.20, 2.22, 2.23, 2.26, 3.01, 4.01 to 4.06, 4.20, 5.01 to 5.06, 5.08, 5.10 to 5.12, 5.15, 5.16 and 5.20 to 5.25.

Heliothis virescens = test: Ovicidal/larvicidal activity on Heliothis virescens; conditions: 192 h, 400 ppm spray on eggs deposited on cotton, evaluated after 8 days, read-out: % reduction in population (hatching percentage of eggs and survival rate of caterpillars)
Description: Heliothis eggs which have been deposited on cotton are sprayed with a spray mixture prepared with an aqueous emulsion and comprising 400 ppm of the active ingredient. After 8 days, the hatching percentage of the eggs and the survival rate of the caterpillars are evaluated by comparing them with untreated control batches (% reduction in population).

Ctenocephalides felis = test: Activity against Ctenocephalides felis; conditions: 504 h, 100 ppm in flea larvae nutrient medium, flea eggs, checked after 21 days
Description: 20 to 25 flea eggs are placed into a horizontally positioned 50 ml tissue culture flask into which 15 g of flea larvae nutrient medium comprising 100 ppm of the active ingredient to be tested have previously been introduced. The test flasks are incubated in an incubator at 26° to 27° C. and an atmospheric humidity of 60-70%. After 21 days, the flasks are checked for the presence of adult fleas, unhatched pupae and larvae.

[3] = system: Heliothis virescens caterpillars; test: Activity against Heliothis virescens caterpillars; conditions: 144 h, 400 ppm spray on young soybean plants, first larval stage, evaluated after 6 days, read-out: percentage reduction in population or in feeding damage (% activity)
Description: Young soybean plants are sprayed with a spray mixture prepared with an aqueous emulsion and comprising 400 ppm of the active ingredient. After the spray coating has dried on, the soybean plants are populated with 10 Heliothis virescens in the first larval stage and placed into a plastic container. The test is evaluated after 6 days. The percentage reduction in population, or the percentage reduction in feeding damage (% activity), is determined by comparing the number of dead caterpillars and the feeding damage on the treated plants with those on the untreated plants.

Aphis craccivora = test: Activity against Aphis craccivora; conditions: 400 ppm spray on pea seedlings, 20° C., evaluated after 3 and 6 days, read-out: percentage reduction in population (% activity)
Description: Pea seedlings are infected with Aphis craccivora, subsequently sprayed with a spray mixture comprising 400 ppm of the active ingredient, and incubated at 20° C. The test is evaluated after 3 and 6 days. The percentage reduction in population (% activity) is determined by comparing the number of dead aphids on the treated plants with those on the untreated plants.

Bemisia tabaci = test: Activity against Bemisia tabaci; conditions: 336 h, 400 ppm spray on dwarf bean plants with nymphs, evaluated 14 days after application, read-out: activity (hatching percentages vs untreated control)
Description: Dwarf bean plants are placed into gauze cages and populated with adult Bemisia tabaci specimens (white fly). After oviposition has taken place, all adults are removed and, 10 days later, the plants with the nymphs located thereon are treated with a spray mixture of the active ingredients to be tested (concentration 400 ppm), which has been prepared with an aqueous emulsion. The test is evaluated for hatching percentages 14 days after the active ingredient has been applied by comparison with the untreated control batches. […] An activity of over 80% is shown, in particular, by compound Nos. 1.01, 2.01 to 2.08, 2.10 to 2.16, 2.22, 2.23, 3.01, 4.01, 4.02, 4.05, 4.06, 5.02, 5.03, 5.06 to 5.08, 5.10, 5.11, 5.20, 5.21 and 6.09.

[4] = system: Panonychus ulmi (OP- and carb.- resistant); test: Activity against Panonychus ulmi (OP- and carb.- resistant); conditions: 336 h, 400 ppm spray on apple seedlings, evaluated after 14 days, read-out: percentage reduction in population (% activity)
Description: Apple seedlings are populated with adult females of Panonychus ulmi. After seven days, the infested plants are sprayed to drip point with an aqueous emulsion comprising 400 ppm of the test compound and grown in the greenhouse. The test is evaluated after 14 days. The percentage reduction in population (% activity) is determined by comparing the number of dead spider mites on the treated plants with those on the untreated plants. […] An activity of over 80% is shown, in particular, by compound Nos. 1.01, 2.01, 2.07, 2.08, 2.10, 2.12 to 2.16, 2.22, 2.23, 2.26, 3.01, 4.01, 4.02, 4.06, 5.01 to 5.03, 5.05, 5.06, 5.08, 5.10, 5.11, 5.15, 5.16 and 5.20 to 5.25.

Nephotettix cincticeps [5] = test: Activity against Nephotettix cincticeps (spray on rice plants); conditions: 504 h, 400 ppm spray on rice plants, larvae in stages 2 and 3, evaluated 21 days later, read-out: percentage reduction in population (% activity)
Description: Rice plants are treated with a spray mixture prepared with an aqueous emulsion and comprising 400 ppm of the active ingredient. After the spray coating has dried on, the rice plants are populated with leaf hopper larvae in stages 2 and 3. The test is evaluated 21 days later. The percentage reduction in population (% activity) is determined by comparing the number of surviving leaf hoppers on the treated plants with those on the untreated plants.

Nephotettix cincticeps [6] = test: Systemic activity against Nephotettix cincticeps; conditions: 144 h, pots with rice plants in 400 ppm aqueous emulsion solution, larvae in stages 2 and 3, evaluated after 6 days, read-out: percentage reduction in population (% activity)
Description: Pots containing rice plants are placed into an aqueous emulsion solution comprising 400 ppm of the active ingredient. The rice plants are subsequently populated with larvae in stages 2 and 3. The test is evaluated after 6 days. The percentage reduction in population (% activity) is determined by comparing the number of leaf hoppers on the treated plants with those on the untreated plants.

Dermanyssus gallinae = test: Activity against Dermanyssus gallinae; conditions: 72 h, 10 ppm solution, mites in different development stages, after 3 days
Description: 2 to 3 ml of a solution comprising 10 ppm of active ingredient and approximately 200 mites in different development stages are placed into a glass container which is open at the top. The container is then sealed with a cottonwool ball, shaken for 10 minutes until the mites are wetted completely, and then briefly turned over so that the remaining test solution can be absorbed by the cottonwool. After 3 days, the mortality of the mites is determined by counting the dead individuals; it is given as a percentage.

[7] = system: Crocidolomia binotalis caterpillars; test: Activity against Crocidolomia binotalis caterpillars; conditions: Brassica oleracea, 72 h; 400 ppm spray on young cabbage plants, third larval stage, evaluated after 3 days; read-out: percentage reduction in population or in feeding damage (% activity)
Description: Young cabbage plants are sprayed with a spray mixture prepared with an aqueous emulsion and comprising 400 ppm of the active ingredient. After the spray coating has dried on, the cabbage plants are infested with 10 Crocidolomia binotalis in the third larval stage and placed into a plastic container. The test is evaluated after 3 days. The percentage reduction in population, or the percentage reduction in feeding damage (% activity), is determined by comparing the number of dead caterpillars and the feeding damage on the treated plants with those on the untreated plants.

adult Anthonomus grandis = test: Activity against adult Anthonomus grandis; conditions: 72 h, 400 ppm spray on young cotton plants, adults, evaluated after 3 days, read-out: percentage reduction in population or in feeding damage (% activity)
Description: Young cotton plants are sprayed with a spray mixture prepared with an aqueous emulsion and comprising 400 ppm of the active ingredient. After the spray coating has dried on, the cotton plants are populated with 10 adult Anthonomus grandis and placed into a plastic container. The test is evaluated after 3 days. The percentage reduction in population, or the percentage reduction in feeding damage (% activity), is determined by comparing the number of dead beetles and the feeding damage on the treated plants with those on the untreated plants.

O=C(CCCC=C(F)F)OCCOc1ccc(OC(=O)c2ccccc2)cc1 [Compound 2.22]
> 80%: activity at 400 ppm (Tetranychus urticae) | activity at 400 ppm (Nilaparvata lugens [1]) | activity at 400 ppm (Nilaparvata lugens [2]) | pest or weed control at 400 ppm (Heliothis virescens) | pest or weed control at 100 ppm (Ctenocephalides felis) | activity at 400 ppm [3] | activity at 400 ppm (Aphis craccivora) | pest or weed control at 400 ppm (Bemisia tabaci) | activity at 400 ppm [4]

O=C(CCCC=C(F)F)OCCOc1ccc(OC(=O)Oc2ccccc2)cc1 [Compound 2.23]
> 80%: activity at 400 ppm (Tetranychus urticae) | activity at 400 ppm (Nephotettix cincticeps [5]) | activity at 400 ppm (Nilaparvata lugens [1]) | activity at 400 ppm (Nilaparvata lugens [2]) | pest or weed control at 400 ppm (Heliothis virescens) | pest or weed control at 100 ppm (Ctenocephalides felis) | activity at 400 ppm [3] | activity at 400 ppm (Aphis craccivora) | pest or weed control at 400 ppm (Bemisia tabaci) | activity at 400 ppm [4]

CC(C)(C)c1ccc(COc2ccc(OCCOC(=O)CCCC=C(F)F)cc2)cc1 [Compound 2.26]
> 80%: activity at 400 ppm (Tetranychus urticae) | activity at 400 ppm (Nephotettix cincticeps [5]) | activity at 400 ppm (Nilaparvata lugens [1]) | activity at 400 ppm (Nilaparvata lugens [2]) | pest or weed control at 400 ppm (Heliothis virescens) | pest or weed control at 100 ppm (Ctenocephalides felis) | activity at 400 ppm [3] | activity at 400 ppm [4]

O=C(CCCCCCCC=C(F)F)OCCOc1ccc(Oc2ccccc2)cc1 [Compound 4.01]
> 80%: activity at 400 ppm (Nephotettix cincticeps [5]) | activity at 400 ppm [3] | activity at 400 ppm (Nephotettix cincticeps [6]) | pest or weed control at 400 ppm (Bemisia tabaci) | activity at 400 ppm [4] | mortality at 10 ppm (Dermanyssus gallinae)

O=C(CCCCCCCC=C(F)F)OCCOc1ccc(Sc2ccccc2)cc1 [Compound 4.02]
> 80%: activity at 400 ppm (Nephotettix cincticeps [5]) | activity at 400 ppm [3] | activity at 400 ppm (Nephotettix cincticeps [6]) | pest or weed control at 400 ppm (Bemisia tabaci) | activity at 400 ppm [4] | mortality at 10 ppm (Dermanyssus gallinae)

Cc1nsc(Oc2ccc(OCCOC(=O)CCCCCCCC=C(F)F)cc2)n1 [Compound 4.04]
> 80%: pest or weed control at 100 ppm (Ctenocephalides felis) | mortality at 10 ppm (Dermanyssus gallinae)

CC(COC(=O)CCCCCCCC=C(F)F)Oc1ccc(Oc2ccccc2)cc1 (centres unmarked) [Compound 4.06]
> 80%: activity at 400 ppm (Nephotettix cincticeps [5]) | activity at 400 ppm [3] | activity at 400 ppm (Nephotettix cincticeps [6]) | pest or weed control at 400 ppm (Bemisia tabaci) | activity at 400 ppm [4] | mortality at 10 ppm (Dermanyssus gallinae)

O=C(CCCCCCCCCC=C(F)F)OCCOc1ccc(Oc2ccccc2)cc1 [Compound 5.01]
> 80%: activity at 400 ppm [7] | activity at 400 ppm (adult Anthonomus grandis)

O=C(CCCCCCCCCC=C(F)F)OCCOc1ccc(Sc2ccccc2)cc1 [Compound 5.02]
> 80%: activity at 400 ppm [7] | pest or weed control at 400 ppm (Bemisia tabaci) | activity at 400 ppm (adult Anthonomus grandis)

O=C(CCCCCCCCCC=C(F)F)OCCOc1ccc(OCc2ccc(Cl)cc2)cc1 [Compound 5.08]
> 80%: activity at 400 ppm (Tetranychus urticae) | activity at 400 ppm (Nilaparvata lugens [2]) | pest or weed control at 100 ppm (Ctenocephalides felis) | activity at 400 ppm [4]

O=C(CCCCCCCCCC=C(F)F)OCCOc1ccc(OCc2cccc(F)c2)cc1 [Compound 5.24]
> 80%: activity at 400 ppm (Nephotettix cincticeps [5]) | activity at 400 ppm [3] | activity at 400 ppm (Nephotettix cincticeps [6])
